In ChEMBL document CHEMBL5463727, “Data for DCP probe SGK3-PROTAC1” (2023):
Calls of active or inactive are those of the source. The rule behind the calls is not given here.

Key:
[1] = biological target: Serine/threonine-protein kinase Sgk3 (Homo sapiens, UniProt Q96BR1); assay: SGK3 radioactive filter binding assay using 33P ATP (Dundee kinase screen)
[2] = biological target: Mitogen-activated protein kinase kinase kinase 5 (Homo sapiens) (UniProt Q99683); assay: % Activity remaining of ASK1 in the Dundee kinase panel at 1.0 µM; conditions: Compound concentration 1.0 uM
[3] = biological target: Protein-tyrosine kinase 6 (Homo sapiens) (UniProt Q13882); assay: % Activity remaining of BRK in the Dundee kinase panel at 1.0 µM; conditions: Compound concentration 1.0 uM
[4] = biological target: Serine/threonine-protein kinase BRSK2 (Homo sapiens) (UniProt Q8IWQ3); assay: % Activity remaining of BRSK2 in the Dundee kinase panel at 1.0 µM; conditions: Compound concentration 1.0 uM
[5] = biological target: Casein kinase I isoform delta (Homo sapiens) (UniProt P48730); assay: % Activity remaining of CK1 delta in the Dundee kinase panel at 1.0 µM; conditions: Compound concentration 1.0 uM
[6] = biological target: Death-associated protein kinase 1 (Homo sapiens) (UniProt P53355); assay: % Activity remaining of DAPK1 in the Dundee kinase panel at 1.0 µM; conditions: Compound concentration 1.0 uM
[7] = biological target: Dual specificity tyrosine-phosphorylation-regulated kinase 1A (Homo sapiens) (UniProt Q13627); assay: % Activity remaining of DYRK1A in the Dundee kinase panel at 1.0 µM; conditions: Compound concentration 1.0 uM
[8] = biological target: Dual specificity tyrosine-phosphorylation-regulated kinase 2 (Homo sapiens) (UniProt Q92630); assay: % Activity remaining of DYRK2 in the Dundee kinase panel at 1.0 µM; conditions: Compound concentration 1.0 uM
[9] = biological target: Eukaryotic elongation factor 2 kinase (Homo sapiens) (UniProt O00418); assay: % Activity remaining of EF2K in the Dundee kinase panel at 1.0 µM; conditions: Compound concentration 1.0 uM
[10] = biological target: Ephrin type-A receptor 4 (Homo sapiens) (UniProt P54764); assay: % Activity remaining of EPH-A4 in the Dundee kinase panel at 1.0 µM; conditions: Compound concentration 1.0 uM
[11] = biological target: Mitogen-activated protein kinase 1 (Homo sapiens) (UniProt P28482); assay: % Activity remaining of ERK2 in the Dundee kinase panel at 1.0 µM; conditions: Compound concentration 1.0 uM
[12] = biological target: Insulin-like growth factor 1 receptor (Homo sapiens) (UniProt P08069); assay: % Activity remaining of IGF-1R in the Dundee kinase panel at 1.0 µM; conditions: Compound concentration 1.0 uM
[13] = biological target: Inhibitor of nuclear factor kappa-B kinase subunit beta (Homo sapiens) (UniProt O14920); assay: % Activity remaining of IKK beta in the Dundee kinase panel at 1.0 µM; conditions: Compound concentration 1.0 uM
[14] = biological target: Insulin receptor (Homo sapiens) (UniProt P06213); assay: % Activity remaining of IR in the Dundee kinase panel at 1.0 µM; conditions: Compound concentration 1.0 uM
[15] = biological target: Interleukin-1 receptor-associated kinase 4 (Homo sapiens) (UniProt Q9NWZ3); assay: % Activity remaining of IRAK4 in the Dundee kinase panel at 1.0 µM; conditions: Compound concentration 1.0 uM
[16] = biological target: Mitogen-activated protein kinase 8 (Homo sapiens) (UniProt P45983); assay: % Activity remaining of JNK1 in the Dundee kinase panel at 1.0 µM; conditions: Compound concentration 1.0 uM
[17] = biological target: Mitogen-activated protein kinase 10 (Homo sapiens) (UniProt P53779); assay: % Activity remaining of JNK3 in the Dundee kinase panel at 1.0 µM; conditions: Compound concentration 1.0 uM
[18] = biological target: Tyrosine-protein kinase Lck (Homo sapiens) (UniProt P06239); assay: % Activity remaining of Lck in the Dundee kinase panel at 1.0 µM; conditions: Compound concentration 1.0 uM
[19] = biological target: Serine/threonine-protein kinase MARK1 (Homo sapiens) (UniProt Q9P0L2); assay: % Activity remaining of MARK1 in the Dundee kinase panel at 1.0 µM; conditions: Compound concentration 1.0 uM
[20] = biological target: Mitogen-activated protein kinase kinase kinase 1 (Homo sapiens) (UniProt Q13233); assay: % Activity remaining of MEKK1 in the Dundee kinase panel at 1.0 µM; conditions: Compound concentration 1.0 uM
[21] = biological target: Maternal embryonic leucine zipper kinase (Homo sapiens) (UniProt Q14680); assay: % Activity remaining of MELK in the Dundee kinase panel at 1.0 µM; conditions: Compound concentration 1.0 uM
[22] = biological target: Misshapen-like kinase 1 (Homo sapiens) (UniProt Q8N4C8); assay: % Activity remaining of MINK1 in the Dundee kinase panel at 1.0 µM; conditions: Compound concentration 1.0 uM
[23] = biological target: Dual specificity mitogen-activated protein kinase kinase 2 (Homo sapiens) (UniProt P36507); assay: % Activity remaining of MKK2 in the Dundee kinase panel at 1.0 µM; conditions: Compound concentration 1.0 uM
[24] = biological target: Mitogen-activated protein kinase 14 (Homo sapiens) (UniProt Q16539); assay: % Activity remaining of p38 alpha MAPK in the Dundee kinase panel at 1.0 µM; conditions: Compound concentration 1.0 uM
[25] = biological target: Mitogen-activated protein kinase 11 (Homo sapiens) (UniProt Q15759); assay: % Activity remaining of p38 beta MAPK in the Dundee kinase panel at 1.0 µM; conditions: Compound concentration 1.0 uM
[26] = biological target: Mitogen-activated protein kinase 13 (Homo sapiens) (UniProt O15264); assay: % Activity remaining of p38 delta MAPK in the Dundee kinase panel at 1.0 µM; conditions: Compound concentration 1.0 uM
[27] = biological target: Serine/threonine-protein kinase PINK1, mitochondrial (Homo sapiens) (UniProt Q9BXM7); assay: % Activity remaining of PINK in the Dundee kinase panel at 1.0 µM; conditions: Compound concentration 1.0 uM
[28] = biological target: Protein kinase C zeta type (Homo sapiens) (UniProt Q05513); assay: % Activity remaining of PKC zeta in the Dundee kinase panel at 1.0 µM; conditions: Compound concentration 1.0 uM
[29] = biological target: Serine/threonine-protein kinase N2 (Homo sapiens) (UniProt Q16513); assay: % Activity remaining of PRK2 in the Dundee kinase panel at 1.0 µM; conditions: Compound concentration 1.0 uM
[30] = biological target: Serine/threonine-protein kinase SIK2 (Homo sapiens) (UniProt Q9H0K1); assay: % Activity remaining of SIK2 in the Dundee kinase panel at 1.0 µM; conditions: Compound concentration 1.0 uM
[31] = biological target: Proto-oncogene tyrosine-protein kinase Src (Homo sapiens) (UniProt P12931); assay: % Activity remaining of Src in the Dundee kinase panel at 1.0 µM; conditions: Compound concentration 1.0 uM
[32] = biological target: SRSF protein kinase 1 (Homo sapiens) (UniProt Q96SB4); assay: % Activity remaining of SRPK1 in the Dundee kinase panel at 1.0 µM; conditions: Compound concentration 1.0 uM
[33] = biological target: Serine/threonine-protein kinase 33 (Homo sapiens) (UniProt Q9BYT3); assay: % Activity remaining of STK33 in the Dundee kinase panel at 1.0 µM; conditions: Compound concentration 1.0 uM
[34] = biological target: Angiopoietin-1 receptor (Homo sapiens) (UniProt Q02763); assay: % Activity remaining of TIE2 in the Dundee kinase panel at 1.0 µM; conditions: Compound concentration 1.0 uM
[35] = biological target: Serine/threonine-protein kinase tousled-like 1 (Homo sapiens) (UniProt Q9UKI8); assay: % Activity remaining of TLK1 in the Dundee kinase panel at 1.0 µM; conditions: Compound concentration 1.0 uM
[36] = biological target: Tau-tubulin kinase 1 (Homo sapiens) (UniProt Q5TCY1); assay: % Activity remaining of TTBK1 in the Dundee kinase panel at 1.0 µM; conditions: Compound concentration 1.0 uM
[37] = biological target: Tau-tubulin kinase 2 (Homo sapiens) (UniProt Q6IQ55); assay: % Activity remaining of TTBK2 in the Dundee kinase panel at 1.0 µM; conditions: Compound concentration 1.0 uM
[38] = biological target: Dual specificity protein kinase TTK (Homo sapiens) (UniProt P33981); assay: % Activity remaining of TTK in the Dundee kinase panel at 1.0 µM; conditions: Compound concentration 1.0 uM
[39] = biological target: Tyrosine-protein kinase ZAP-70 (Homo sapiens) (UniProt P43403); assay: % Activity remaining of ZAP70 in the Dundee kinase panel at 1.0 µM; conditions: Compound concentration 1.0 uM

Sequence of Interleukin-1 receptor-associated kinase 4 (Homo sapiens) (Q9NWZ3 whole entry): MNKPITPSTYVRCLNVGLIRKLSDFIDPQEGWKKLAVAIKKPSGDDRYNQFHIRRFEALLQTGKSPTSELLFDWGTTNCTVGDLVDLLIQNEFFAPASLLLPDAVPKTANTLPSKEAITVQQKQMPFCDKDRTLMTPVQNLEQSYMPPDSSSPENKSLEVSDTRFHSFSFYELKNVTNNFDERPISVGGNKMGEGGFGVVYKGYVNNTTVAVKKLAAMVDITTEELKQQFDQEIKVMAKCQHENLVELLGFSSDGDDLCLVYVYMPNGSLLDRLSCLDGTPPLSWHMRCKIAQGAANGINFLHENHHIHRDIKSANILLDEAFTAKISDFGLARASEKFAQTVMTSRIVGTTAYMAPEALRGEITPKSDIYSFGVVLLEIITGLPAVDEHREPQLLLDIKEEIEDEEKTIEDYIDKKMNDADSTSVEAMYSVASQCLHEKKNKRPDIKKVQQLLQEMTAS
Sequence of Eukaryotic elongation factor 2 kinase (Homo sapiens) (O00418 whole entry): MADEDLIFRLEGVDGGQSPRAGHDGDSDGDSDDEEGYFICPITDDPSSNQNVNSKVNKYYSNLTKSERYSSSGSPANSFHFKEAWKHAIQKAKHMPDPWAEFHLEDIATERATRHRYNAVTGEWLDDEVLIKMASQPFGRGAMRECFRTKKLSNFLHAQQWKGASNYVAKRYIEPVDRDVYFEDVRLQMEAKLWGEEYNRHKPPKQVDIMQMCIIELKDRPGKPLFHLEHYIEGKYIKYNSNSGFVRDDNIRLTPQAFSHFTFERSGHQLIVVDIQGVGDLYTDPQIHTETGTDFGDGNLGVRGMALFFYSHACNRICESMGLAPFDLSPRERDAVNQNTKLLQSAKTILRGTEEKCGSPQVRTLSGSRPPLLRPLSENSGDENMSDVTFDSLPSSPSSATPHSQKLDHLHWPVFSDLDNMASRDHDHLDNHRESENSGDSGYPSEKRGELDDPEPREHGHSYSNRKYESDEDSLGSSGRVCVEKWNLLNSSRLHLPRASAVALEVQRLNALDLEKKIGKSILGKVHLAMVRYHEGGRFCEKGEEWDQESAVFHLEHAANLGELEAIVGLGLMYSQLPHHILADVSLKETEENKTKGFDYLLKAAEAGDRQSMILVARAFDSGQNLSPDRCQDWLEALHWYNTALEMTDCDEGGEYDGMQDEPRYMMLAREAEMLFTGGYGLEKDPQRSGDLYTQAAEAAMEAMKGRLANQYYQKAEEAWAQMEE
Sequence of Dual specificity tyrosine-phosphorylation-regulated kinase 2 (Homo sapiens) (Q92630 whole entry): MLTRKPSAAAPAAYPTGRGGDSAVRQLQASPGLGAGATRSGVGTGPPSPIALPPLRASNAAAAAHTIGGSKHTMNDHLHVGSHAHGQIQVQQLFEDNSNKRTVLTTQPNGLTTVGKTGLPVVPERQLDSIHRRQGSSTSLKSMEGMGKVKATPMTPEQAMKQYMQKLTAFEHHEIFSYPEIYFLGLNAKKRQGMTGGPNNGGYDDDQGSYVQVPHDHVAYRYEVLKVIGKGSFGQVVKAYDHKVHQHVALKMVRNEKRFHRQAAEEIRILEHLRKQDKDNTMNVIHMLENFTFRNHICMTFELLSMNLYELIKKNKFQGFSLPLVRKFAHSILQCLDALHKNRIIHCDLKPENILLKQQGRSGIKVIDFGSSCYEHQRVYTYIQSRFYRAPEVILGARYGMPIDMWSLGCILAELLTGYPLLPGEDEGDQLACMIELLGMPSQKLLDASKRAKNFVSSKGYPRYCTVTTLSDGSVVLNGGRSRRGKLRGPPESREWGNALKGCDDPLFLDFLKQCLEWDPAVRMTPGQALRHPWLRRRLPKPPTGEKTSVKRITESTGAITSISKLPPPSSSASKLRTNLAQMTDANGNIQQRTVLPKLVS
Sequence of Mitogen-activated protein kinase 14 (Homo sapiens) (Q16539 whole entry): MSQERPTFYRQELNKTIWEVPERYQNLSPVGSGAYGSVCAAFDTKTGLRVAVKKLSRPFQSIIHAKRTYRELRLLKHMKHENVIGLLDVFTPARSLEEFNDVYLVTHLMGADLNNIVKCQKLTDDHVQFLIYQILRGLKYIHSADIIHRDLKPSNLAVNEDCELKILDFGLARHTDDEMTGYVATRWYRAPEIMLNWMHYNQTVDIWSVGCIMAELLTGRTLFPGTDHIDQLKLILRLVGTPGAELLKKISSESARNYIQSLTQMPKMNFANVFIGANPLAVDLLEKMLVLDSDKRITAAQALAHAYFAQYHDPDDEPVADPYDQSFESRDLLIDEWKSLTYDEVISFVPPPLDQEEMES
Sequence of Serine/threonine-protein kinase Sgk3 (Q96BR1 whole entry): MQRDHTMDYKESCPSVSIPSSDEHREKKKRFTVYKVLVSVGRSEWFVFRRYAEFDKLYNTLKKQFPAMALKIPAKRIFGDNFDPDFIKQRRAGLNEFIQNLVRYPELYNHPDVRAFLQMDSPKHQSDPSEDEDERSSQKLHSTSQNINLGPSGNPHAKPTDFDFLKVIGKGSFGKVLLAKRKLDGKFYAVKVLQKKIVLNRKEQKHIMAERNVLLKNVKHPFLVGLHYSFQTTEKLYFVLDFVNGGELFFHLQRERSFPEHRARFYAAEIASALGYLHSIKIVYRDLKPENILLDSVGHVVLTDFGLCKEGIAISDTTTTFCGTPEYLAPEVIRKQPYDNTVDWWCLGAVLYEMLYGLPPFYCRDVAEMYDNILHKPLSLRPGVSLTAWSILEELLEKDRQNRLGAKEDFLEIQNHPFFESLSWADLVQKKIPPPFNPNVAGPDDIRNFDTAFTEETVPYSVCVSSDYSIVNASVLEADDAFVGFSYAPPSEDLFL
Sequence of Inhibitor of nuclear factor kappa-B kinase subunit beta (Homo sapiens) (O14920 whole entry): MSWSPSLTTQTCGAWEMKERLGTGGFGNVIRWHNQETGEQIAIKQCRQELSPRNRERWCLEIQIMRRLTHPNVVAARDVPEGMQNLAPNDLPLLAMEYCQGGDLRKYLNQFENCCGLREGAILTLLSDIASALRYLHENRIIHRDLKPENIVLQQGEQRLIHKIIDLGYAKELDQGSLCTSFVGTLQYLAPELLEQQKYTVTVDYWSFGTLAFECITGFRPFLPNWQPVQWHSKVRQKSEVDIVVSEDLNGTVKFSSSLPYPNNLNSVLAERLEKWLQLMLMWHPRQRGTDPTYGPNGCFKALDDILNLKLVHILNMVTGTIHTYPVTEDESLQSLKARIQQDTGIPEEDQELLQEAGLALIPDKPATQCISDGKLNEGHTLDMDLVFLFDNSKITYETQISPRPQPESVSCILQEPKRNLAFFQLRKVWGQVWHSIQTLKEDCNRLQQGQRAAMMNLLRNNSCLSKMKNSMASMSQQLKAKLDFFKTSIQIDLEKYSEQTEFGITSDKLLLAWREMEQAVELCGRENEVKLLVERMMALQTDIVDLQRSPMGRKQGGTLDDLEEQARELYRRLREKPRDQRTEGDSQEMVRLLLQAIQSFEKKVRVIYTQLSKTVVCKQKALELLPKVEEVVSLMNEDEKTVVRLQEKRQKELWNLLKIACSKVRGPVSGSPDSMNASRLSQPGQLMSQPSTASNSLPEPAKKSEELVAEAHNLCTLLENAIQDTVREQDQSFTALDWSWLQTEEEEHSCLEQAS
Sequence of Mitogen-activated protein kinase 8 (Homo sapiens) (P45983 whole entry): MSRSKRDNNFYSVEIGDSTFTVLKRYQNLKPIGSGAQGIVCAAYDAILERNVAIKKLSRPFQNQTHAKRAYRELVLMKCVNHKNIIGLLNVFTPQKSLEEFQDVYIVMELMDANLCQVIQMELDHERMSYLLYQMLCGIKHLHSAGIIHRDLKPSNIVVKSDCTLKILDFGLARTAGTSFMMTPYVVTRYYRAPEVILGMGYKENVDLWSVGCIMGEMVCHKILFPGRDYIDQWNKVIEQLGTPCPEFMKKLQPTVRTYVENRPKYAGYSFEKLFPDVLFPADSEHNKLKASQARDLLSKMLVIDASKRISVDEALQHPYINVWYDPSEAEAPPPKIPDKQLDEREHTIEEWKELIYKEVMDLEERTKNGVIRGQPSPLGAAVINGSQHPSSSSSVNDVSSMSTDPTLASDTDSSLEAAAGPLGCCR
Sequence of Serine/threonine-protein kinase PINK1, mitochondrial (Homo sapiens) (Q9BXM7 whole entry): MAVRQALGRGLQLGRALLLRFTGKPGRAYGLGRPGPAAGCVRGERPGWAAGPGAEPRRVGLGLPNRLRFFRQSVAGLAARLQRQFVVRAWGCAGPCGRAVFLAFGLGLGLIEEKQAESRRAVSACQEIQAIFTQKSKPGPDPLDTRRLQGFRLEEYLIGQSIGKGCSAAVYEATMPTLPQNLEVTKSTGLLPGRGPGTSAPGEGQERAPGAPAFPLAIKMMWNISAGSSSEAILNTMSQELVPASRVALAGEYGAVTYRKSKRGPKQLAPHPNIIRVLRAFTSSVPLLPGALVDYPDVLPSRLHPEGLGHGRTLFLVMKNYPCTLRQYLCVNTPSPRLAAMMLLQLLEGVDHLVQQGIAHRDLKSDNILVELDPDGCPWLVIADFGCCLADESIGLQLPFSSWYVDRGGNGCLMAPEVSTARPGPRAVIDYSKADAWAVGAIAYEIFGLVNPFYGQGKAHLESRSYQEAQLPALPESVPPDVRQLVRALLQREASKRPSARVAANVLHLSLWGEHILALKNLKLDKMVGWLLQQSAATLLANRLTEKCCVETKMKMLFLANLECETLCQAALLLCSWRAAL
Sequence of Protein kinase C zeta type (Homo sapiens) (Q05513 whole entry): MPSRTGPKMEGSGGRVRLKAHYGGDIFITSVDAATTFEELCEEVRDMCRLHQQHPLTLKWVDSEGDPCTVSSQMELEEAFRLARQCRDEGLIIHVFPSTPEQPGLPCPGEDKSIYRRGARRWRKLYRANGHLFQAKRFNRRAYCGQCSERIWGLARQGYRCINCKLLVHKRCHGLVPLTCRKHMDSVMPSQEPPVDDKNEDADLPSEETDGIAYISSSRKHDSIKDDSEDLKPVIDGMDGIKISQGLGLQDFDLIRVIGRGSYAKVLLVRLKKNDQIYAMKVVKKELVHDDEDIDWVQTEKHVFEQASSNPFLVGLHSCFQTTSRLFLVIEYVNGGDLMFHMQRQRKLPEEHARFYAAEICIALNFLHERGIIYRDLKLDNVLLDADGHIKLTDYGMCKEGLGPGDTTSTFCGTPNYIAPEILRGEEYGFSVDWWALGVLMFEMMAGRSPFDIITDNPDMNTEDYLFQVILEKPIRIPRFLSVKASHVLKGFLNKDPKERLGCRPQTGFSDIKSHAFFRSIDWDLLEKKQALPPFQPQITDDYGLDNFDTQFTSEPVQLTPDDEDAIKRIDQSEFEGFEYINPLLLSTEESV

Compound	IC50 [1]	% Activity remaining [2] [%]	% Activity remaining [3] [%]	% Activity remaining [4] [%]	% Activity remaining [5] [%]	% Activity remaining [6] [%]	% Activity remaining [7] [%]	% Activity remaining [8] [%]	% Activity remaining [9] [%]	% Activity remaining [10] [%]	% Activity remaining [11] [%]	% Activity remaining [12] [%]	% Activity remaining [13] [%]	% Activity remaining [14] [%]	% Activity remaining [15] [%]	% Activity remaining [16] [%]	% Activity remaining [17] [%]	% Activity remaining [18] [%]	% Activity remaining [19] [%]	% Activity remaining [20] [%]	also measured
Cc1ccc(F)c(S(=O)(=O)Nc2ccc(-c3nc(OC[C@H]4CN(CCCCCCOCCOCCOCC(=O)N[C@H](C(=O)N5C[C@H](O)C[C@H]5C(=O)NCc5ccc(-c6scnc6C)cc5)C(C)(C)C)CCO4)c4cn[nH]c4n3)cc2)c1	0.3 µM (active)	113	86.8	97.2	95	100	105	102	97.5	106	104	82.4	99.9	103	114	117	92.1	124	99.4	124	% Activity remaining [21]: 91.5%; % Activity remaining [22]: 115%; % Activity remaining [23]: 114%; % Activity remaining [24]: 125%; % Activity remaining [25]: 107%; % Activity remaining [26]: 103%; % Activity remaining [27]: 108%; % Activity remaining [28]: 96.5%; % Activity remaining [29]: 105%; % Activity remaining [30]: 94.6%; % Activity remaining [31]: 83.4%; % Activity remaining [32]: 95.8%; % Activity remaining [33]: 110%; % Activity remaining [34]: 63.8%; % Activity remaining [35]: 102%; % Activity remaining [36]: 105%; % Activity remaining [37]: 93.5%; % Activity remaining [38]: 89.4%; % Activity remaining [39]: 75%
Cc1ccc(F)c(S(=O)(=O)Nc2ccc(-c3nc(OC[C@H]4CN(CCCCCCOCCOCCOCC(=O)N[C@H](C(=O)N5C[C@@H](O)C[C@H]5C(=O)NCc5ccc(-c6scnc6C)cc5)C(C)(C)C)CCO4)c4cn[nH]c4n3)cc2)c1	0.6 µM (not active)	102	105	101	108	108	99	97.3	105	89.4	95.2	93.2	101	93.9	98	119	82.5	116	93	128	% Activity remaining [21]: 99.5%; % Activity remaining [22]: 116%; % Activity remaining [23]: 124%; % Activity remaining [24]: 109%; % Activity remaining [25]: 112%; % Activity remaining [26]: 121%; % Activity remaining [27]: 109%; % Activity remaining [28]: 110%; % Activity remaining [29]: 101%; % Activity remaining [30]: 93.8%; % Activity remaining [31]: 86.8%; % Activity remaining [32]: 104%; % Activity remaining [33]: 109%; % Activity remaining [34]: 80.8%; % Activity remaining [35]: 109%; % Activity remaining [36]: 113%; % Activity remaining [37]: 89.7%; % Activity remaining [38]: 99.4%; % Activity remaining [39]: 74.7%
